Data on four compounds can be found in article PMC6757289, “Design and Characterization of SGK3-PROTAC1, an Isoform Specific SGK3 Kinase PROTAC Degrader” (ACS Chemical Biology, 2019).

The structures appear in SMILES notation. Where two headings read alike, the source gives them in different places.

Test in all cases: kinase profiling panel
Format in all cases: biochemical
Holding throughout (conditions): read-out: % Activity Remaining

Experiment [1] addresses JNK1 (Homo sapiens, UniProt P45983). An excerpt:
(§1) Protein kinase profiling against a Dundee panel of 140 protein kinases was undertaken at the International Centre for Protein Kinase Profiling. The result for each kinase was presented as a mean kinase activity of the reaction taken in triplicate relative to a control sample treated with DMSO. Assay conditions and abbreviations are available at http://www.kinase-screen.mrc.ac.uk.

Experiment [2] concerns the target T1, EPH-B3 (Homo sapiens, UniProt P54753).
T1 sequence (P54753 34-998): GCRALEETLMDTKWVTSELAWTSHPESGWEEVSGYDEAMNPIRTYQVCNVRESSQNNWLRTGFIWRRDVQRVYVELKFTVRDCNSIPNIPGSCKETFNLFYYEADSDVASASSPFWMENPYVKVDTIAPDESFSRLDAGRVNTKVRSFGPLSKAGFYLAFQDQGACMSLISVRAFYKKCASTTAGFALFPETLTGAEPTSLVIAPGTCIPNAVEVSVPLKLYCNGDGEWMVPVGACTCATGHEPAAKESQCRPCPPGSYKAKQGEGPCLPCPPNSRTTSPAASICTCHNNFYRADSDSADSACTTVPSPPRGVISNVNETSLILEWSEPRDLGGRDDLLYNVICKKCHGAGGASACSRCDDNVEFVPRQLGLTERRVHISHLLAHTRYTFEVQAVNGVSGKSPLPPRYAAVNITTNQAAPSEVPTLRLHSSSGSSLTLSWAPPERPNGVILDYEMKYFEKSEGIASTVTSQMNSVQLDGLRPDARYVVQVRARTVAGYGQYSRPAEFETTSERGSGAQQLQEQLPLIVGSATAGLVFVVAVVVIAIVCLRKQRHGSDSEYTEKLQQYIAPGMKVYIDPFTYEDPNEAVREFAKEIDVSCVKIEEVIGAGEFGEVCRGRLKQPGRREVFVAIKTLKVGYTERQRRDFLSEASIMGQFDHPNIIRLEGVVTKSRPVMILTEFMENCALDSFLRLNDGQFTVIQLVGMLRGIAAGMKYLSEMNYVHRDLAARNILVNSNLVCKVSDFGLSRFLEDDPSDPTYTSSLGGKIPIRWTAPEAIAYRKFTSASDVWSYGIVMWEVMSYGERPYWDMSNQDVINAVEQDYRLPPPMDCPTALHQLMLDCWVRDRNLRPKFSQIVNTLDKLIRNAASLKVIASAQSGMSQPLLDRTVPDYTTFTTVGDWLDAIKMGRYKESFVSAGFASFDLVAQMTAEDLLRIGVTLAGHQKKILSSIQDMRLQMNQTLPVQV
Source text: as §1

Experiment [3] deals with MAPKAP-K3 (Homo sapiens, UniProt Q16644).
Chain of MAPKAP-K3 (Q16644 whole entry): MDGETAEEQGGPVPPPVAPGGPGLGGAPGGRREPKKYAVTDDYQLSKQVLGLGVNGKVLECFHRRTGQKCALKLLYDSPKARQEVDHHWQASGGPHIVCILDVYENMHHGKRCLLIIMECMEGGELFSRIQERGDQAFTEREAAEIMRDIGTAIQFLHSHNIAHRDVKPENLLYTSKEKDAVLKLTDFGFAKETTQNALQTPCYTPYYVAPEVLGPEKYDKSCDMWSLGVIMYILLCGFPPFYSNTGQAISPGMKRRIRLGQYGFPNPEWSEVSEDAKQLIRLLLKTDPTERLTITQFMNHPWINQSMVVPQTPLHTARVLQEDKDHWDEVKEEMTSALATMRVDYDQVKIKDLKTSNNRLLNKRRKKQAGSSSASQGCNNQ
Source text: as §1

The target of experiment [4] is T2, PKD1 (Homo sapiens, UniProt Q15139).
T2 sequence (Q15139 1-912): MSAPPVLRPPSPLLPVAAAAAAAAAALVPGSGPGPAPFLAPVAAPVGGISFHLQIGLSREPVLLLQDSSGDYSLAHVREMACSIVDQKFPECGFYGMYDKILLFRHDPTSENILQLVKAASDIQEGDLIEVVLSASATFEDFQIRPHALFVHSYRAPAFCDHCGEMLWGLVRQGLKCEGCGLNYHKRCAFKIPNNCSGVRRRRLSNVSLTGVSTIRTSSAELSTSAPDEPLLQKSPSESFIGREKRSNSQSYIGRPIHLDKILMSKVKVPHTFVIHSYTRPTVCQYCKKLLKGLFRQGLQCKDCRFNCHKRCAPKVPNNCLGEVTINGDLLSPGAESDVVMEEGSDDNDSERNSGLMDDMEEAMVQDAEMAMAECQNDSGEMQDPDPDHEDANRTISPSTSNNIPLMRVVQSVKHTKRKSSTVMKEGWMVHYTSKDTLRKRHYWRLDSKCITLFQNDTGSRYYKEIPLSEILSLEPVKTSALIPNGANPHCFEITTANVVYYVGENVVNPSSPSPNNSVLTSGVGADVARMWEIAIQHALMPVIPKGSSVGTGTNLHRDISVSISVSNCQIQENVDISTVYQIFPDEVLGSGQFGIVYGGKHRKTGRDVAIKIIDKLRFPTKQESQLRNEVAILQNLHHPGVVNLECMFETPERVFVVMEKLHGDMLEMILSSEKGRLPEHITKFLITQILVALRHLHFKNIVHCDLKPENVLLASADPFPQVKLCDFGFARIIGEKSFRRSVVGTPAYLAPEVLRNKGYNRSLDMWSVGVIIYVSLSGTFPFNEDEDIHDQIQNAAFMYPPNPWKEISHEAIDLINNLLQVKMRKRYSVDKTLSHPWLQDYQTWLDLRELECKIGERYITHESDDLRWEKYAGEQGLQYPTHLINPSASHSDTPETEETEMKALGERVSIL
Source text: as §1

Experiment [5] concerns the target RIPK2 (Homo sapiens, UniProt O43353).
Source text: as §1

Usually remaining activity stands for the signal under treatment as a percentage of the control signal.

Chain of JNK1 (P45983 whole entry): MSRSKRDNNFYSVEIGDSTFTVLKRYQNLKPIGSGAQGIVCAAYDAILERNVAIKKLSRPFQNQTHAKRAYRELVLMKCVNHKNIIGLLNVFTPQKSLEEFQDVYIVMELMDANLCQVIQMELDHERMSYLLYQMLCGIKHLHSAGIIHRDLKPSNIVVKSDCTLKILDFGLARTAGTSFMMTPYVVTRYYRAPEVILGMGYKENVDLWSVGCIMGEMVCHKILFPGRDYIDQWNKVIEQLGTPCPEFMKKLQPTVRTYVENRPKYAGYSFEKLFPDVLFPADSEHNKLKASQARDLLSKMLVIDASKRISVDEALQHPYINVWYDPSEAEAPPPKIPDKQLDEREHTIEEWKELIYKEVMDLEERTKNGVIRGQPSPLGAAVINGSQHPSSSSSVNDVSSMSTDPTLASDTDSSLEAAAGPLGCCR
Chain of RIPK2 (O43353 whole entry): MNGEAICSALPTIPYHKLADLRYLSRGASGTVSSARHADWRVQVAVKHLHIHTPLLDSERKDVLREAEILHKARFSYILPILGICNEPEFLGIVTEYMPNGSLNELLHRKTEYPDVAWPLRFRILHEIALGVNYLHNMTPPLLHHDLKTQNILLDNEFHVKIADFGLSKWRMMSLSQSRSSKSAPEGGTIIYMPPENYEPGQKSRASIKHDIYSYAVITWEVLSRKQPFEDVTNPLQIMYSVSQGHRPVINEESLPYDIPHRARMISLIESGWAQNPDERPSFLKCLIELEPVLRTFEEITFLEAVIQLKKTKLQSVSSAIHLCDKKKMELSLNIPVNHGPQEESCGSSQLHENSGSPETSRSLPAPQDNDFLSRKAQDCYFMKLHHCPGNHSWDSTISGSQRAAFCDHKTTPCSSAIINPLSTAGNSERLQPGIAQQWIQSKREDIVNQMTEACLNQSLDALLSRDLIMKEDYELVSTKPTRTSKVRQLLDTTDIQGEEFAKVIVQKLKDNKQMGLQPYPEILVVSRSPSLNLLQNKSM

Regarding `COc1ccc(Cl)c(S(=O)(=O)Nc2ccc(-c3nc(OC[C@H]4CNCCO4)c4c(C)n[nH]c4n3)cc2)c1` [290-R, reference compound], the remaining activity at 1 µM in experiment [1] is 101%; in experiment [2], 104%; in experiment [3], 105%; in experiment [4], 15%; in experiment [5], 124%.
On the same counts, the results for `Cc1ccc(F)c(S(=O)(=O)Nc2ccc(-c3nc(OC[C@H]4CNCCO4)c4cn[nH]c4n3)cc2)c1` [308-R, reference compound] are 112%, 64%, 83%, 37% and 122%.
With `Cc1ccc(F)c(S(=O)(=O)Nc2ccc(-c3nc(OC[C@H]4CN(CCCCCCOCCOCCOCC(=O)N[C@H](C(=O)N5C[C@H](O)C[C@H]5C(=O)NCc5ccc(-c6scnc6C)cc5)C(C)(C)C)CCO4)c4cn[nH]c4n3)cc2)c1` [SGK3-PROTAC1], the remaining activity at 1 µM in experiment [1] (1 µM) is 117%; in experiment [2] (1 µM) it was 92%; in experiment [3] (1 µM), 79%; in experiment [4] (1 µM) it was 94%; in experiment [5] (1 µM) it was 88%.
As for `Cc1ccc(F)c(S(=O)(=O)Nc2ccc(-c3nc(OC[C@H]4CN(CCCCCCOCCOCCOCC(=O)N[C@H](C(=O)N5C[C@@H](O)C[C@H]5C(=O)NCc5ccc(-c6scnc6C)cc5)C(C)(C)C)CCO4)c4cn[nH]c4n3)cc2)c1` [cisSGK3-PROTAC1], the remaining activity at 1 µM in experiment [1] (1 µM) was determined as 119%; in experiment [2] (1 µM), 104%; in experiment [3] (1 µM) it was 77%; in experiment [4] (1 µM), 92%; in experiment [5] (1 µM) it was 94%.
